Assay results published in ChEMBL document CHEMBL1811867, “Psilostachyin, acetylated pseudoguaianolides and their analogues: preparation and evaluation of their anti-inflammatory potential” (2011).

How the values were obtained:
[1] = Antiinflammatory activity in mouse neutrophils assessed as inhibition of LPS-stimulated TNFalpha cytokine expression at 1 ug/ml after 3 hrs by flow cytometeric analysis; format: functional; conditions: Neutrophil
[2] = Antiinflammatory activity in mouse neutrophils assessed as inhibition of LPS-stimulated IL1-beta expression at 1 ug/ml after 4-5 hrs by ELISA relative to control; format: functional; conditions: Neutrophil
[3] = Antiinflammatory activity in mouse neutrophils assessed as inhibition of LPS-stimulated IL-6 expression at 1 ug/ml after 4-5 hrs by ELISA relative to control; format: functional; conditions: Neutrophil
[4] = Antiinflammatory activity in mouse neutrophils assessed as inhibition of LPS-stimulated IL-6 expression at 100 ug/ml after 4-5 hrs by ELISA relative to control; format: functional; conditions: Neutrophil
[5] = Antiinflammatory activity in mouse neutrophils assessed as inhibition of LPS-stimulated IL1-beta expression after 4-5 hrs by ELISA relative to control; format: functional, Neutrophil
[6] = Antiinflammatory activity in mouse neutrophils assessed as inhibition of LPS-stimulated TNFalpha cytokine expression at 100 ug/ml after 3 hrs by flow cytometeric analysis; format: functional; conditions: Neutrophil

SMILES | inhibition at 1 µg/mL [1] [%] | other results
C=C1C(=O)O[C@@H]2[C@H]1CC[C@H](C)C1=C[C@H](OC(C)=O)C(=O)[C@]12C | 5.46 | –
C=C1C(=O)O[C@@H]2[C@H]1CC[C@H](C)C1=C[C@@H](OC(C)=O)C(=O)[C@]12C | 2.34 | –
C=C1C(=O)O[C@@H]2[C@H]1CC[C@H](C)[C@]1(OC(C)=O)C=CC(=O)[C@@]21C | -1.17 | –
C=C1C(=O)O[C@@H]2[C@H]1CC[C@H](C)[C@]1(OC(=O)CC)C=CC(=O)[C@@]21C | -17.2 | –
C=C1C(=O)O[C@@H]2[C@H]1CC[C@H](C)[C@]1(OC(=O)CCC)C=CC(=O)[C@@]21C | 14.1 | –
C=C1C(=O)O[C@@H]2[C@H]1CC[C@H](C)C1=C[C@H](OC(=O)CC)C(=O)[C@]12C | 10.5 | –
C=C1C(=O)O[C@@H]2[C@H]1CC[C@H](C)C1=C[C@H](OC(=O)CCC)C(=O)[C@]12C | -6.64 | –
C=C1C(=O)O[C@@H]2[C@H]1CC[C@H](C)C1=C[C@@H](OC(=O)CC)C(=O)[C@]12C | -9.37 | –
C=C1C(=O)O[C@@H]2[C@H]1CC[C@H](C)C1=C[C@@H](OC(=O)CCC)C(=O)[C@]12C | 32 | –
C=C1C(=O)O[C@@H]2[C@H]1CC[C@H](C)[C@]1(C=CC(=O)O1)[C@@]2(C)O | 31.2 | –
C[C@H]1CC[C@@H]2[C@@H](OC(=O)[C@@]23CCN=N3)[C@](C)(O)[C@@]12C=CC(=O)O2 | 49.2 | inhibition at 1 µg/mL [2]: 36%; inhibition at 1 µg/mL [3]: 11.3%
C=C1C(=O)O[C@@H]2[C@H]1CC[C@H](C)[C@]1(OC(C)=O)C=CC(=O)O[C@@]21C | 16.8 | –
C=C1C(=O)O[C@@H]2[C@H]1CC[C@H](C)[C@]1(OC(=O)CC)C=CC(=O)O[C@@]21C | 26.9 | –
C=C1C(=O)O[C@@H]2[C@H]1CC[C@H](C)[C@]1(OC(=O)CCC)C=CC(=O)O[C@@]21C | 12.5 | –
C[C@H]1CC[C@@H]2[C@@H](OC(=O)[C@@]23CCN=N3)[C@]2(C)OC(=O)C=C[C@@]12O | 59.8 | inhibition at 1 µg/mL [2]: 41.4%; inhibition at 1 µg/mL [3]: 14%
CC1=C2CC[C@H](C)[C@]3(O)CCC(=O)O[C@@]3(C)[C@@H]2OC1=O | 53.1 | inhibition at 1 µg/mL [2]: 40.9%; inhibition at 1 µg/mL [3]: 17.1%
C=C1C(=O)O[C@@H]2[C@H]1CC[C@H](C)[C@]1(O)C=CC(=O)O[C@@]21C | 41.4 | –
C=C1C(=O)O[C@@H]2[C@H]1CC[C@H](C)[C@]1(O)CCC(=O)[C@@]21C [CORONOPILIN] | -7.03 | –
C=C1C(=O)O[C@@H]2[C@H]1CC[C@H](C)[C@]1(O)C=CC(=O)[C@@]21C [PARTHENIN] | -0.39 | –
C=C1C(=O)O[C@@H]2[C@H]1CC[C@H](C)[C@]1(CCC(=O)O1)[C@@]2(C)O [PSILOSTACHYIN A] | 39.5 | –
COc1ccc(C2CNC(=O)C2)cc1OC1CCCC1 (centres undefined) [ROLIPRAM] | – | inhibition at 100 µg/mL [4]: 36.1%; inhibition (INH) [5]: 64.27%; inhibition at 100 µg/mL [6]: 71.5%
